# PubChem BioAssay AID2060903 (Molecular Pharmacology Branch, DTP, NCI, 2025)
# Tested on: 377384-186-R-J1-PDC complex spheroid viability
# Assay: Anticancer human tumor 377384-186-R-J1-PDC patient-derived pancreatic carcinoma cell line growth inhibition [RAS]
# Details: for IC50: curve of first compound; for viability, T/C: stronger effect = lower value
# Summary of the method: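 Agents were tested in combination matrices in half-log decrements from a top concentration at or near clinical Cmax (10 microM if undetermined). Targets were multi-cell spheroids of tumour lines plus HUVEC and MSC stromal cells.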
# 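Note: spheroids exposed to compounds for seven days before readout.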
smiles,measurement,setting,value
CC(C)NCC(C(=O)N1CCN(c2ncnc3c2C(C)CC3O)CC1)c1ccc(Cl)cc1 (stereo unspecified) + CCn1c(-c2cccnc2C(C)OC)c2c3cc(ccc31)N1CCOC(CC(NC(=O)C(C(C)C)N(C)C(=O)C3(F)CCN(C(=O)C#CC(C)(C)N(C)C)CC3)C(=O)N3CCCC(N3)C(=O)OCC(C)(C)C2)C1,IC50,second compound 0.000949 µM,3790 nM
same,IC50,second compound 0.003 µM,2770 nM
same,IC50,second compound 0.00949 µM,2770 nM
same,IC50,second compound 0.03 µM,2540 nM
same,IC50,second compound 0.0949 µM,2080 nM
same,IC50,second compound 0.3 µM,2140 nM
same,"viability, T/C","second compound 0.000949 µM, first compound 0.0316 µM",95.4%
same,"viability, T/C","second compound 0.000949 µM, first compound 0.1 µM",93.3%
same,"viability, T/C","second compound 0.000949 µM, first compound 0.316 µM",88.2%
same,"viability, T/C","second compound 0.000949 µM, first compound 1 µM",66.9%
same,"viability, T/C","second compound 0.000949 µM, first compound 3.16 µM",56%
same,"viability, T/C","second compound 0.000949 µM, first compound 10 µM",32.1%
same,"viability, T/C","second compound 0.003 µM, first compound 0.0316 µM",104%
same,"viability, T/C","second compound 0.003 µM, first compound 0.1 µM",106%
same,"viability, T/C","second compound 0.003 µM, first compound 0.316 µM",85.1%
same,"viability, T/C","second compound 0.003 µM, first compound 1 µM",72.2%
same,"viability, T/C","second compound 0.003 µM, first compound 3.16 µM",46.9%
same,"viability, T/C","second compound 0.003 µM, first compound 10 µM",29.4%
same,"viability, T/C","second compound 0.00949 µM, first compound 0.0316 µM",102%
same,"viability, T/C","second compound 0.00949 µM, first compound 0.1 µM",95.1%
same,"viability, T/C","second compound 0.00949 µM, first compound 0.316 µM",80.8%
same,"viability, T/C","second compound 0.00949 µM, first compound 1 µM",65.3%
same,"viability, T/C","second compound 0.00949 µM, first compound 3.16 µM",48.4%
same,"viability, T/C","second compound 0.00949 µM, first compound 10 µM",31%
same,"viability, T/C","second compound 0.03 µM, first compound 0.0316 µM",100%
same,"viability, T/C","second compound 0.03 µM, first compound 0.1 µM",85.1%
same,"viability, T/C","second compound 0.03 µM, first compound 0.316 µM",91.4%
same,"viability, T/C","second compound 0.03 µM, first compound 1 µM",66.8%
same,"viability, T/C","second compound 0.03 µM, first compound 3.16 µM",46.2%
same,"viability, T/C","second compound 0.03 µM, first compound 10 µM",29.3%
same,"viability, T/C","second compound 0.0949 µM, first compound 0.0316 µM",91.2%
same,"viability, T/C","second compound 0.0949 µM, first compound 0.1 µM",86.9%
same,"viability, T/C","second compound 0.0949 µM, first compound 0.316 µM",79.2%
same,"viability, T/C","second compound 0.0949 µM, first compound 1 µM",59.6%
same,"viability, T/C","second compound 0.0949 µM, first compound 3.16 µM",44.8%
same,"viability, T/C","second compound 0.0949 µM, first compound 10 µM",29.3%
same,"viability, T/C","second compound 0.3 µM, first compound 0.0316 µM",69.4%
same,"viability, T/C","second compound 0.3 µM, first compound 0.1 µM",78.7%
same,"viability, T/C","second compound 0.3 µM, first compound 0.316 µM",67.2%
same,"viability, T/C","second compound 0.3 µM, first compound 1 µM",59.8%
same,"viability, T/C","second compound 0.3 µM, first compound 3.16 µM",45.3%
same,"viability, T/C","second compound 0.3 µM, first compound 10 µM",27.5%
CCc1c2c(nc3ccc(O)cc13)-c1cc3c(c(=O)n1C2)COC(=O)[C@]3(O)CC + C=CC(=O)N1CCN(c2nc(OCC3CCCN3C)nc3c(F)c(-c4nc(N)cc(C)c4C(F)(F)F)c(Cl)cc23)C(C)C1,IC50,second compound 0.00316 µM,1.55 nM
same,IC50,second compound 0.01 µM,1.4 nM
same,IC50,second compound 0.0316 µM,1.41 nM
same,IC50,second compound 0.1 µM,1.24 nM
same,IC50,second compound 0.316 µM,1.38 nM
same,IC50,second compound 1 µM,1.18 nM
same,"viability, T/C","second compound 0.00316 µM, first compound 0.000949 µM",62.2%
same,"viability, T/C","second compound 0.00316 µM, first compound 0.003 µM",33.5%
same,"viability, T/C","second compound 0.00316 µM, first compound 0.00949 µM",14.6%
same,"viability, T/C","second compound 0.00316 µM, first compound 0.03 µM",6.38%
same,"viability, T/C","second compound 0.00316 µM, first compound 0.0949 µM",2.5%
same,"viability, T/C","second compound 0.00316 µM, first compound 0.3 µM",1.05%
same,"viability, T/C","second compound 0.01 µM, first compound 0.000949 µM",59%
same,"viability, T/C","second compound 0.01 µM, first compound 0.003 µM",31.9%
same,"viability, T/C","second compound 0.01 µM, first compound 0.00949 µM",18.1%
same,"viability, T/C","second compound 0.01 µM, first compound 0.03 µM",5.58%
same,"viability, T/C","second compound 0.01 µM, first compound 0.0949 µM",2.2%
same,"viability, T/C","second compound 0.01 µM, first compound 0.3 µM",1.1%
same,"viability, T/C","second compound 0.0316 µM, first compound 0.000949 µM",61%
same,"viability, T/C","second compound 0.0316 µM, first compound 0.003 µM",28.6%
same,"viability, T/C","second compound 0.0316 µM, first compound 0.00949 µM",14%
same,"viability, T/C","second compound 0.0316 µM, first compound 0.03 µM",6.21%
same,"viability, T/C","second compound 0.0316 µM, first compound 0.0949 µM",2.11%
same,"viability, T/C","second compound 0.0316 µM, first compound 0.3 µM",1.21%
same,"viability, T/C","second compound 0.1 µM, first compound 0.000949 µM",55.5%
same,"viability, T/C","second compound 0.1 µM, first compound 0.003 µM",32.2%
same,"viability, T/C","second compound 0.1 µM, first compound 0.00949 µM",15.7%
same,"viability, T/C","second compound 0.1 µM, first compound 0.03 µM",4.22%
same,"viability, T/C","second compound 0.1 µM, first compound 0.0949 µM",2.88%
same,"viability, T/C","second compound 0.1 µM, first compound 0.3 µM",0.95%
same,"viability, T/C","second compound 0.316 µM, first compound 0.000949 µM",57.9%
same,"viability, T/C","second compound 0.316 µM, first compound 0.003 µM",33.1%
same,"viability, T/C","second compound 0.316 µM, first compound 0.00949 µM",17.6%
same,"viability, T/C","second compound 0.316 µM, first compound 0.03 µM",6.72%
same,"viability, T/C","second compound 0.316 µM, first compound 0.0949 µM",2.76%
same,"viability, T/C","second compound 0.316 µM, first compound 0.3 µM",1%
same,"viability, T/C","second compound 1 µM, first compound 0.000949 µM",53.6%
same,"viability, T/C","second compound 1 µM, first compound 0.003 µM",33.9%
same,"viability, T/C","second compound 1 µM, first compound 0.00949 µM",18.9%
same,"viability, T/C","second compound 1 µM, first compound 0.03 µM",7.03%
same,"viability, T/C","second compound 1 µM, first compound 0.0949 µM",2.97%
same,"viability, T/C","second compound 1 µM, first compound 0.3 µM",1.13%
CCN1CCN(Cc2ccc(Nc3ncc(F)c(-c4cc(F)c5nc(C)n(C(C)C)c5c4)n3)nc2)CC1 + C#Cc1c(F)ccc2cc(O)cc(-c3ncc4c(N5CC6CCC(C5)N6)nc(OCC56CCCN5CC(F)C6)nc4c3F)c12,IC50,second compound 0.0316 µM,< 3.16 nM
same,IC50,second compound 0.1 µM,< 3.16 nM
same,IC50,second compound 0.316 µM,< 3.16 nM
same,IC50,second compound 1 µM,< 3.16 nM
same,IC50,second compound 3.16 µM,< 3.16 nM
same,IC50,second compound 10 µM,< 3.16 nM
same,"viability, T/C","second compound 0.0316 µM, first compound 0.00316 µM",21%
same,"viability, T/C","second compound 0.0316 µM, first compound 0.01 µM",18.9%
same,"viability, T/C","second compound 0.0316 µM, first compound 0.0316 µM",11.8%
same,"viability, T/C","second compound 0.0316 µM, first compound 0.1 µM",11.6%
same,"viability, T/C","second compound 0.0316 µM, first compound 0.316 µM",5.8%
same,"viability, T/C","second compound 0.0316 µM, first compound 1 µM",4.39%
same,"viability, T/C","second compound 0.1 µM, first compound 0.00316 µM",9.77%
same,"viability, T/C","second compound 0.1 µM, first compound 0.01 µM",9.8%
same,"viability, T/C","second compound 0.1 µM, first compound 0.0316 µM",8.49%
same,"viability, T/C","second compound 0.1 µM, first compound 0.1 µM",4.76%
same,"viability, T/C","second compound 0.1 µM, first compound 0.316 µM",3.64%
same,"viability, T/C","second compound 0.1 µM, first compound 1 µM",2.94%
same,"viability, T/C","second compound 0.316 µM, first compound 0.00316 µM",3.83%
same,"viability, T/C","second compound 0.316 µM, first compound 0.01 µM",3.75%
same,"viability, T/C","second compound 0.316 µM, first compound 0.0316 µM",3.3%
same,"viability, T/C","second compound 0.316 µM, first compound 0.1 µM",2.21%
same,"viability, T/C","second compound 0.316 µM, first compound 0.316 µM",2.67%
same,"viability, T/C","second compound 0.316 µM, first compound 1 µM",2.17%
same,"viability, T/C","second compound 1 µM, first compound 0.00316 µM",2.87%
same,"viability, T/C","second compound 1 µM, first compound 0.01 µM",2.26%
same,"viability, T/C","second compound 1 µM, first compound 0.0316 µM",2.11%
same,"viability, T/C","second compound 1 µM, first compound 0.1 µM",1.55%
same,"viability, T/C","second compound 1 µM, first compound 0.316 µM",2.1%
same,"viability, T/C","second compound 1 µM, first compound 1 µM",2.53%
same,"viability, T/C","second compound 3.16 µM, first compound 0.00316 µM",1.72%
same,"viability, T/C","second compound 3.16 µM, first compound 0.01 µM",1.78%
same,"viability, T/C","second compound 3.16 µM, first compound 0.0316 µM",1.26%
same,"viability, T/C","second compound 3.16 µM, first compound 0.1 µM",1.41%
same,"viability, T/C","second compound 3.16 µM, first compound 0.316 µM",1.98%
same,"viability, T/C","second compound 3.16 µM, first compound 1 µM",1.76%
same,"viability, T/C","second compound 10 µM, first compound 0.00316 µM",1.13%
same,"viability, T/C","second compound 10 µM, first compound 0.01 µM",1.55%
same,"viability, T/C","second compound 10 µM, first compound 0.0316 µM",0.87%
same,"viability, T/C","second compound 10 µM, first compound 0.1 µM",0.72%
same,"viability, T/C","second compound 10 µM, first compound 0.316 µM",0.67%
same,"viability, T/C","second compound 10 µM, first compound 1 µM",0.32%
